Results published in US20050180982A1, “Cadherin-11 expression, an assay and treatment for cellular invasiveness” (THE UNIVERSITY OF BRITISH COLUMBIA, priority 1998, published 2005).

Experiments:
[1] = test system: cad-11 mRNA in extravillous cytotrophoblasts; assay: Northern blot of cad-11 mRNA in extravillous cytotrophoblasts cultured with TGF-1; type: cell-based, human
Protocol: (§1) First trimester placentae were obtained from elective terminations of pregnancies (8-13 weeks). Extravillous cytotrophoblasts were propagated from first trimester placental explants as described by Graham et al. Biology of Reproduction 46:561-572. The chorionic villi were washed thoroughly in Dulbecco's Modified Eagle's Medium (DMEM; Gibco BRL. Burlington. Ont.) containing 25 mM glucose, 25 mM Hepes and […] gentamicin. The villi were minced finely and plated in 25 cm^2 tissue culture flasks containing DMEM supplemented with antibiotics and 10% heat-inactivated fetal calf serum (FCS). The fragments of chorionic villi were allowed to adhere for […], after which the non-adherent material was removed. The villous explants were cultured for a further 10-14 days, with the culture medium being replaced every 3 days. The propagated extravillous cytotrophoblasts were separated from the villous explants by a trypsin digestion (0.125% trypsin in Ca^2−, Mg^2−-free PBS) and plated in 60 mm culture dishes containing DMEM supplemented with antibiotics and 10% FCS. The purity of the extravillous cytotrophoblast cultures was determined by cytokeratin immunostaining. Only cultures which were 100% positive for cytokeratin immunostaining were used.
Extravillous cytotrophoblasts grown to 70% confluence in DMEM containing 10% FCS, were washed with PBS and cultured in serum-free DMEM for a further 24 hours. […]
The Northern blots were probed with a human cad-11 cDNA probe according to the methods of MacCalman et al. (1992) [supra]. […] The absorbance values obtained for the cad-11 mRNA transcript were normalized relative to the 18 rRNA absorbance value.
The results are presented as the mean relative absorbance (±SE) for three independent experiments. Statistical differences between treatments were assessed by the analysis of variance (ANOVA). […] Significant differences between the means were determined using the least significant test.

[2] = test system: cad-11 protein in extravillous cytotrophoblasts; assay: Western blot of cad-11 protein in extravillous cytotrophoblasts cultured with TGF-1; type: cell-based, human
Protocol: as §1
(§2) Extravillous cytotrophoblasts grown to 70% confluence in DMEM containing 10% FCS, were washed with PBS and cultured in serum-free DMEM for a further 24 hours. This culture medium was removed and after the cells had been washed twice with PBS, replaced with serum-free DMEM containing porcine TGF-1 (1 pg-10 ng/ml); Sigma Chemical Co., St. Louis. MO) or vehicle ([…]). The cells were fixed for morphological assessment and immunocytochemistry or harvested for Northern or Western blot analysis after 24 hours of culture in the presence or absence of TGF-1.
For Western blot analysis, the trophoblasts were incubated in 100 l of cell lysis buffer (Tris-HCl, pH 7.5 containing 0.5% Nonidet P40, 0.5 mM CaCl2 and 1.0 mM PMSF) at 4° C. for 30 minutes on a rocking platform. The cell lysates were centrifuges at 10.000×g for 20 minutes and the supernatant used in the Wester blot analyses. Aliquots were then taken from the samples and subjected to SDS-polyacrylamide gel electrophoresis under reducing conditions, as described by Laemmli (1970) Nature 227:680-685. The stacking gels contained 5% acrylamide and the separating eels were composed of 7.5% acrylamide. […]
The results are presented as the mean relative absorbance (±SE) for three independent experiments. Statistical differences between treatments were assessed by the analysis of variance (ANOVA). […] Significant differences between the means were determined using the least significant test. […]

[3] = test system: extravillous cytotrophoblasts; assay: Immunocytochemistry for cad-11 and morphology of extravillous cytotrophoblasts cultured with TGF-1; type: cell-based, human
Protocol: as §1, §2
The cells were washed twice in PBS and fixed in 0.1% glutaraldehyde/2% formaldehyde at 4° C. for 20 minutes Immunocytochemistry was performed using a mouse monoclonal antibody directed against human cytokeratin filaments 8 and 18 (Becton Dickson. San lose. CA) or a further monoclonal antibody directed against human cad-11 (C11-113E; ICOS Corporation. Bothell, Wash.; ATCC accession no. HB-12515) as described in (MacCalman et al. 1996 [supra] and Getsios et al. 1998 [supra]). Sequential incubations were performed according to the methods of Cartun and Pedersen (1989) J. of Histotechnology 12:273-280 and included 10% normal horse serum for 30 minutes, primary antiserum at 37° C. for 1 hours, secondary biotinylated antibody at 37° C. for 45 minutes, streptavidin-biotinylated horseradish peroxidase complex reagent at 37° C. for 30 minutes, and three five minutes washes in PBS. […]

[4] = test system: cad-11 mRNA in PC3 prostate cancer cell line; assay: Semiquantitative PCR of cad-11 mRNA in PC3 cells cultured with TGF-1; type: cell-based; details: TGF-1 10 pg-1 ng/ml for 24 hours
Source text: (§3) However, low levels of the mRNA transcripts encoding E-cadherin and cad-11 were also detected in these cell lines.
(§4) The increase in cad-11 was concomitant with a decrease in cad-6 and N-cadherin mRNA levels.

[5] = test system: cad-6 mRNA in PC3 prostate cancer cell line; assay: PCR of cad-6 mRNA in PC3 cells cultured with TGF-1; type: cell-based; details: TGF-1 10 pg-1 ng/ml for 24 hours
Source text: as §3, §4

[6] = test system: N-cadherin mRNA in PC3 prostate cancer cell line; assay: PCR of N-cadherin mRNA in PC3 cells cultured with TGF-1; type: cell-based; details: TGF-1 10 pg-1 ng/ml for 24 hours
Source text: as §3, §4

[7] = 1 or 10 ng/ml of TGF-1, 24 hours, only these concentrations
[8] = TGF-1 1 pg-10 ng/ml, 24 hours, dose-dependent manner

With “TGF-1: porcine TGF-1 (transforming growth factor), Sigma Chemical Co.” as the substance, how does the “cad-11 mRNA levels at 1 or 10 ng/ml” value [1, 7] read?
Its value is “significant increase”.

And the “TGF-1 concentration giving maximum cad-11 mRNA levels” value ([1]; 24 hours)?
Its value is 10 ng/mL.

What about the “cad-11 mRNA levels, dose dependence” value [1, 8] of the same substance?
The value was “increased”.

What about the “cad-11 protein expression levels at 1 or 10 ng/ml” value [2, 7] of the same substance?
Its value is “significant increase”.

What about the “TGF-1 concentration giving maximum cad-11 expression levels” value ([2]; 24 hours) of the same substance?
Its value is 10 ng/mL.

What about the “cad-11 protein expression levels, dose dependence” value [2, 8] of the same substance?
The value was “increase”.

And the “cad-11 levels by Western blot, dose dependence” value ([2]; porcine TGF-1 10 pg-10 ng/ml)?
The value was “increased”.

What about the cellular structures observed ([3]; 0.1 ng/ml of TGF-1 for 12 hours) of the same substance?
The cellular structures observed was “Large cellular aggregates”.

What about the “large cellular aggregates and multinucleated cells” value ([3]; 10 ng/ml TGF-1, 24 hours) of the same substance?
Its value is “predominant”.

And the “number of cells expressing cad-11” value ([3]; 1 or 10 ng/ml of TGF-1, 24 hours, immunostaining)?
The value was “marked increase”.

And the “cad-11 immunostaining of cell aggregates” value ([3]; high concentrations of TGF-1)?
The value was “Intense immunostaining”.

And the “Cad-11 mRNA levels” value [4]?
Its value is “readily detectable”.

And the “cad-6 mRNA levels” value [5]?
Its value is “decrease”.

What about the “N-cadherin mRNA levels” value [6] of the same substance?
The value was “decrease”.
